One test addresses galectin-3 CRD (Homo sapiens, UniProt P17931). In words: Isothermal titration calorimetry, galectin-3 CRD. The class given is binding. In general terms: ITC needs no label: the signal is the heat of the interaction.
In a further test the target is galectin-3 (full-length) (Homo sapiens, UniProt P17931). The test can be described thus: Isothermal titration calorimetry, full-length galectin-3. Type of test: binding.
Test [1] addresses N-terminal domain of galectin-9 (Homo sapiens, UniProt O00182). The class given is cell-based. The settings on record: CHO wild-type cells, 1 mM.
The next test has as its target galectin-3 (Homo sapiens, UniProt P17931). The test can be described thus: Cell-based assay: inhibition of galectin-3 surface staining of SW480 cells. The settings on record: peptides at up to 1 mM.

galectin-3 CRD, sequence (P17931 118-248 limits assumed): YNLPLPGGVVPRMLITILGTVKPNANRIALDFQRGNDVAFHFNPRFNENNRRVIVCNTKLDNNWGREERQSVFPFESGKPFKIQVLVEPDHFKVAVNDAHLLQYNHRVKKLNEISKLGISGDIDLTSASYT
galectin-3 (full-length), sequence (P17931 whole entry, the tested form may be a part): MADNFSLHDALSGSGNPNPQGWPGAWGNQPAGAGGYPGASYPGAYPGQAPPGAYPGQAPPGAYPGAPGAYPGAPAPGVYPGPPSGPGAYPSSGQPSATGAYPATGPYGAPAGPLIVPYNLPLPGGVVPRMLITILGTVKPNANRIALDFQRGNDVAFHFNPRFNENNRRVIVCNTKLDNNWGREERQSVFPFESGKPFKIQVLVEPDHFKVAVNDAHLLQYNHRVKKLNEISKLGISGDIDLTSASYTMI
N-terminal domain of galectin-9, sequence (O00182 1-148): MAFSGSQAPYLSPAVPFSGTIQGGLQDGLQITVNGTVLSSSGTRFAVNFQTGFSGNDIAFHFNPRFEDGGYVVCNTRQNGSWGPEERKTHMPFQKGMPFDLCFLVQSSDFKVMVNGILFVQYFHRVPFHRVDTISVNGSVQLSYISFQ
galectin-3, sequence (P17931 whole entry): as the sequence (P17931 whole entry, the tested form may be a part) above

Consider `CC(=O)N[C@H]1C(O)O[C@H](CO)[C@H](O)[C@@H]1O[C@@H]1O[C@H](CO)[C@H](O)[C@H](O)[C@H]1O` (stereo partly drawn) [TF, 2-acetamido-2-deoxy-3-O-(β-D-galactopyranosyl)-D-galactopyranose], for which binding on galectin-3 CRD was put at a Kd of 248 µM. Further, at galectin-3 CRD (galectin-3 CRD, ITC), the “n (stoichiometry)” value is listed as 0.93, the “–TΔS” value came to 9.11 kcal/mol, the “–ΔG” value is reported as 4.94 kcal/mol and the “–ΔH” value was 14.05 kcal/mol. Besides, on galectin-3 CRD (galectin-3 CRD, ITC, 25 °C, pH 7.2), the Ka is 0.40 ×10^–4 M^–1. At galectin-3 (full-length), the Kd (as a rule, the free concentration of one partner at which half of the binding sites on the other are occupied at equilibrium, for simple one-to-one binding) amounted to 245 µM. In addition, at galectin-3 (full-length) (full-length galectin-3, ITC), the “n (stoichiometry)” value amounted to 0.82, the “–TΔS” value came out at 3.30 kcal/mol and the “–ΔH” value was determined as 8.74 kcal/mol. In addition, the Ka on galectin-3 (full-length) (full-length galectin-3, ITC, 25 °C, pH 7.2) is 0.40 ×10^–4 M^–1.

Take `OC[C@H]1O[C@@H](O[C@H]2[C@H](O)[C@@H](O)C(O)O[C@@H]2CO)[C@H](O)[C@@H](O)[C@H]1O` (mixture of isomers) [Lac, lactose]: the “inhibition of galectin-9 binding to cells (in words)” value in test [1] is listed as “inhibitory”.

In the case of `CC(=O)N[C@H]1C(O)O[C@H](CO)[C@H](O)[C@@H]1O` (some centres unmarked) [GalNAc, N-acetylgalactosamine], the “inhibition of galectin-9 binding to cells (in words)” value in test [1] is “inhibitory”. At galectin-3, the “inhibition of galectin-3 binding to cells (in words)” value is listed as “less active than Lac”.
